Results published in patent US4791139A, “Diphenyl ether derivatives and their use as insecticides” (Imperial Chemical Industries PLC, priority 1986, dated 1988).

Tests used:
Format in all cases: in vivo
[1] = tested on: Musca domestica (houseflies - adults); assay: Knockdown test, houseflies - adults (MD/KD), Cotton wool/sugar; conditions: 4 hours, read-out: MD/KD grading of knockdown
Outline: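 Product was dissolved in acetone and diluted with water containing 0.1% wetting agent to 100–500 ppm. The flies and/or their food medium were treated with the preparation. Mortality was scored 1–7 days after treatment, with an additional knockdown assessment for houseflies.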

[2] = tested on: Tetranychus urticae (spider mites - adult); assay: Contact test, spider mites - adult (TUa), French bean leaf; conditions: 72 h, 3 days, read-out: TUA grading of mortality
Outline: (§1)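 Product dissolved in acetone, then diluted with water holding 0.1% by weight wetting agent to give 100 to 500 ppm preparations. Pests were held on a host plant or foodstuff, and pests and/or medium were treated. Mortality was assessed one to seven days after treatment.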

Nephotettix cincticeps = assay: Contact test, leaf hopper in place of Nilaparvata lugens (NL**), Rice plant; conditions: 72 h, 250 ppm, 3 days, read-out: NL** grading of mortality (Nephotettix cincticeps)
Protocol: (§2) The activity of the Product was determined using a variety of insect pests. The Product was used in the form of liquid preparations containing from 100 to 500 parts per million (ppm) by weight of the Product. The preparations were made by dissolving the Product in acetone and diluting the solutions with water containing 0.1% by weight of a wetting agent sold under the trade name "SYNPERONIC" NX until the liquid preparations contained the required concentration of the Product. "SYNPERONIC" is a Registered Trade Mark.
(§3) The test procedure adopted with regard to each pest was basically the same and comprised supporting a number of the pests on a medium which was usually a host plant or a foodstuff on which the pests feed, and treating either or both the pests and the medium with the preparations. The mortality of the pests was then assessed at periods usually varying from one to seven days after the treatment.
The results of the tests are given in Table III for each of the Products, at the rate in parts per million given in the second column as a grading of mortality designated as A, B or C wherein A indicates 80-100% mortality or knockdown (70-100% for Meloidogyne incognita), B indicates 50-79% mortality knockdown or knockdown (50-69% for Meloidogyne incognita) and C indicates less than 50% mortality or knockdown. […]

[3] = tested on: Heliothis virescens (tobacco budworm - larvae); assay: Residual test, tobacco budworm - larvae (HV), Cotton leaf; conditions: 72 h, read-out: HV grading of mortality
Outline: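 Products applied as acetone solutions diluted in water with 0.1% wetting agent, at 100–500 ppm; pests on host plant or food, with pests and/or medium treated. Mortality or knockdown scored 1–7 days after treatment and graded A (80–100%), B (50–79%) or C (<50%).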

Myzus persicae (aphids) = assay: Contact test, aphids (MP), Chinese Cabbage leaf; conditions: 72 h, 3 days, read-out: MP grading of mortality
Outline: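 Aphids on a host plant and/or the plant itself were treated with 100–500 ppm of product, applied from acetone diluted in water containing 0.1% SYNPERONIC NX wetting agent. Mortality was scored usually one to seven days after treatment.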

[4] = tested on: Musca domestica (houseflies - adults); assay: Contact test, houseflies - adults (MD), Cotton wool/sugar; conditions: 24 h, 1 day, read-out: MD grading of mortality
Outline: as §1

[5] = tested on: Spodoptera exigua (lesser army worm - larvae); assay: Residual test, lesser army worm - larvae (SP), Cotton leaf; conditions: 72 h, 250 ppm, 3 days, read-out: SP grading of mortality
Outline: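 Compound dissolved in acetone and diluted in water with 0.1% Synperonic NX wetting agent to 100–500 ppm. Pests on host plant or food, with pests and/or medium treated. Mortality assessed 1–7 days after treatment and graded A (80–100%), B (50–79%) or C (<50%).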

[6] = tested on: Diabrotica balteata (rootworm larvae); assay: Residual test, rootworm larvae (DB), Filter paper/maize seed; conditions: 72 h, 3 days, read-out: DB grading of mortality
Outline: as §1

[7] = tested on: Blattella germanica (cockroach nymphs); assay: Residual test, cockroach nymphs (BG), Plastic pot; conditions: 72 h, 3 days, read-out: BG grading of mortality
Outline: as §1

[8] = tested on: Chilo partellus (Maize stemborer - larvae); assay: Residual test, Maize stemborer - larvae (CP), Oilseed rape; conditions: 72 h, 3 days, read-out: CP grading of mortality
Protocol: as §2, §3
The results of the tests are given in Table III for each of the Products, at the rate in parts per million given in the second column as a grading of mortality designated as A, B or C wherein A indicates 80-100% mortality or knockdown (70-100% for Meloidogyne incognita), B indicates 50-79% mortality knockdown or knockdown (50-69% for Meloidogyne incognita) and C indicates less than 50% mortality or knockdown.
In Table III the pest organism used is designated by a letter code and the pests species, the support medium or food, and the type and duration of test is given in Table II.
(Maize stemborer - larvae)

[9] = tested on: Tetranychus urticae (spider mites - ova); assay: Contact test, spider mites - ova (TUe), French bean leaf; conditions: 144 h, 6 days, read-out: TUE grading of mortality
Outline: as §1

[10] = tested on: Nilaparvata lugens (brown plant hopper - nymphs); assay: Contact test, brown plant hopper - nymphs (NL), Rice plant; conditions: 72 h, 3 days, read-out: NL grading of mortality
Outline: as §1

[11] = tested on: Meloidogyne incognita (Tomato root knot eelworm - larvae); assay: Residual test, Tomato root knot eelworm - larvae (MI), Semi in-vitro; conditions: 168 h, application rate is half that recorded, 7 days, read-out: MI grading of mortality; for mortality at 125 µg/mL: rate 250 ppm

Compound | pest or weed control at 250 ppm [1] [%] | mortality at 250 ppm [2] [%] | mortality at 250 ppm [3] [%] | mortality at 250 ppm (Myzus persicae (aphids)) [%] | mortality at 250 ppm [4] [%] | mortality at 250 ppm [6] [%] | mortality at 250 ppm [7] [%] | mortality at 250 ppm [8] [%] | mortality at 250 ppm [9] [%] | mortality at 250 ppm [10] [%] | mortality at 125 µg/mL [11] [%] | other results
FC(F)(F)COc1ccc(C(CCCc2cccc(Oc3ccccc3)c2)C(F)(F)F)cc1 (racemic) [Compound 73, 1,1,1-trifluoro-2-[4-(2,2,2-trifluoroethoxy)phenyl]-5-(3-phenoxyphenyl)pentane] | 80 to 100 | 80 to 100 | 80 to 100 | 80 to 100 | 80 to 100 | 80 to 100 | 80 to 100 |  |  |  |  | mortality at 250 ppm (Nephotettix cincticeps): 80 to 100%; mortality at 250 ppm [5]: 80 to 100%
FC(F)(F)Oc1ccc(C(=CCCc2cccc(Oc3ccccc3)c2)C(F)(F)F)cc1 [Compound 7, 5-(3-phenoxyphenyl)-2-(4-trifluoromethoxyphenyl)-1,1,1-trifluoropent-2-ene] | < 50 | 80 to 100 | 80 to 100 | 80 to 100 | 50 to 79 | 80 to 100 | 80 to 100 | 80 to 100 | 80 to 100 | 80 to 100 | < 50 | 
CCOc1ccc(C(=CCCc2cccc(Oc3ccccc3)c2)C(F)(F)C(F)(F)F)cc1 [Compound 10, 3-(4-ethoxyphenyl)-1,1,1,2,2-pentafluoro-6-(3-phenoxyphenyl)hex-3-ene] | < 50 | < 50 | < 50 | < 50 | < 50 | < 50 | 50 to 79 | < 50 | < 50 | < 50 | < 50 | 
CCOc1ccc(/C(=C\C=Cc2ccc(F)c(Oc3ccccc3)c2)C(F)(F)F)cc1 [Compound 12, 1,1,1-trifluoro-2-(4-ethoxyphenyl)-5-(4-fluoro-3-phenoxyphenyl)penta-2,4-diene] |  |  |  |  |  |  |  |  |  |  |  | mortality at 500 ppm ([8]; 500 ppm): 80 to 100%; pest or weed control at 500 ppm ([1]; 500 ppm): 80 to 100%; mortality at 500 ppm ([2]; 500 ppm): < 50%; mortality at 500 ppm [3]: 80 to 100%; mortality at 500 ppm (Myzus persicae (aphids); 500 ppm): < 50%; mortality at 500 ppm ([9]; 500 ppm): < 50%; mortality at 500 ppm ([4]; 500 ppm): 80 to 100%; mortality at 500 ppm ([6]; 500 ppm): 80 to 100%; mortality at 500 ppm ([10]; 500 ppm): 80 to 100%; mortality at 250 µg/mL ([11]; rate column 500 ppm): 70 to 100%; mortality at 500 ppm ([7]; 500 ppm): 80 to 100%
FC(F)(F)C(=CCCc1cccc(Oc2ccccc2)c1)c1ccc(C(F)(F)F)cc1 [Compound 15, 5-(3-phenoxyphenyl)-1,1,1-trifluoro-2-(4-trifluoromethylphenyl)pent-2-ene] | < 50 | 50 to 79 | 80 to 100 | < 50 | < 50 | < 50 | 80 to 100 | 80 to 100 | < 50 | < 50 | < 50 | 
CCOc1ccc(C(CC=Cc2cccc(Oc3ccccc3)c2)C(F)(F)F)cc1 (centres unmarked) [Compound 31, 1,1,1-trifluoro-2-(4-ethoxyphenyl)-5-(3-phenoxyphenyl)pent-4-ene] | 80 to 100 | < 50 | 80 to 100 | 80 to 100 | 80 to 100 | 80 to 100 | 80 to 100 | 80 to 100 | < 50 | 80 to 100 | < 50 | 
CCOc1ccc(C(CC=Cc2ccc(F)c(Oc3ccccc3)c2)C(F)(F)F)cc1 (centres unmarked) [Compound 32, 1,1,1-Trifluoro-2-(4-ethoxyphenyl)-5-(4-fluoro-3-phenoxyphenyl)pent-4-ene] | 80 to 100 | 50 to 79 | 80 to 100 | 80 to 100 | 80 to 100 | 80 to 100 | 80 to 100 | 80 to 100 | < 50 | 80 to 100 | < 50 | 
CCOc1ccc(C(C/C=C/c2cccc(Oc3ccccc3)c2)C(F)(F)F)cc1 (centres unmarked) [Compound 34, 1,1,1-trifluoro-2-(4-ethoxyphenyl)-5-(3-phenoxyphenyl)pent-4-ene] | < 50 | < 50 | < 50 | 80 to 100 | < 50 | < 50 | < 50 | 80 to 100 | < 50 | < 50 | 70 to 100 | 
CCOc1ccc(C(C/C=C\c2cccc(Oc3ccccc3)c2)C(F)(F)F)cc1 (centres unmarked) [Compound 35, 1,1,1-trifluoro-2-(4-ethoxyphenyl)-5-(3-phenoxyphenyl)pent-4-ene] | 80 to 100 | 80 to 100 | 80 to 100 | 80 to 100 | 80 to 100 | 80 to 100 | 80 to 100 | 80 to 100 | < 50 | 80 to 100 | < 50 | 
CCOc1ccc(/C(=C\C=C\c2ccc(F)c(Oc3ccccc3)c2)C(F)(F)F)cc1 [Compound 36, 1,1,1-trifluoro-2-(4-ethoxyphenyl)-5-(4-fluoro-3-phenoxyphenyl)penta-2,4-diene] | 80 to 100 | < 50 | 80 to 100 | 80 to 100 | 80 to 100 | 80 to 100 | 80 to 100 | 80 to 100 | < 50 | 80 to 100 | 50 to 69 | 
CCOc1ccc(/C(=C\C=C/c2ccc(F)c(Oc3ccccc3)c2)C(F)(F)F)cc1 [Compound 37, 1,1,1-trifluoro-2-(4-ethoxyphenyl)-5-(4-fluoro-3-phenoxyphenyl)penta-2,4-diene] | < 50 | < 50 | < 50 | < 50 | < 50 | < 50 | 50 to 79 | < 50 | < 50 | < 50 | < 50 | 
